The subject of the assay is HEp-2. Kind of assay: Tested for cloning suppression test against H.Ep.-2 cells. It is filed as functional. As to conditions: Homo sapiens, read-out: ED50 (the source's name).

SMILES strings stand for the structures.

For the molecule `CN(Cc1cnc2nc(N)nc(N)c2n1)c1ccc(C(=O)N[C@@H](CCC(=O)O)C(=O)O)cc1` [METHOTREXATE], the EC50 is 2.4 nM. To `Nc1cc(N)c2cc(CCc3ccc(C(=O)NC(CCC(=O)O)C(=O)O)cc3)ccc2c1` (configuration not stated) belongs 0.9 nM.
